Experimental data reported in patent publication US20220265176A1, “A NOVEL, ORGAN-ON-A-CHIP DEVICE FOR ASSESSING TRANS-EPITHELIAL TRANSPORT, AND USES THEREOF” (The Johns Hopkins University, priority 2019, published 2022).

How the values were obtained:
MDCK-II epithelium = assay: Micro-fluidic Kidney Pump (MFKP) pump performance curve, MDCK-II epithelium; format: cell-based
Text: (§1) A micro-fluidic device to measure transepithelial fluid absorption activities of the kidney epithelium while allowing for cell imaging andvsimultaneous control of fluid pressure, shear stress (FSS), and media chemical composition is described herein (see FIG. 2A-2F). The device measures fluidic flux across the epithelium as a function of apical and basal pressures using a microcapillary (MC) connected to port 2 or 3 (FIG. 2C). The MC measures both the trans-epithelial fluid flux and the hydraulic pressure (FIG. 2C, 2F). […] Calibration experiments are performed to obtain capillary action contribution from the MC to the basal pressure and the static pressure profiles of each device for the shear flow condition considered.

WTm cells = assay: MFKP pump performance curve, wild type medulla (WTm) primary kidney cells; format: cell-based, human
Text: as §1
(§2) Next, it was considered whether the device is useful for understanding fluidic pumping by primary human normal kidney and ADPKD cystic cells. […] The barrier function of the epithelia was again assessed using dye permeation assay (FIG. 15A-15I).
(§3) Port 1 is closed. (4B) Schematic of the setup, which allows measurement of trans-epithelial fluid flux from the basal to apical chamber. (4C) Schematic representation of a cystic kidney derived from ADPKD patients. (4D) Schematic representation of a kidney derived from normal human patients. (4E) The MC is connected to port 3 in the MFKP. Port 1 is closed. (4F) This setup enables measurement of trans-epithelial fluid flux from apical to basal chamber.

ADPKD cystic cells = assay: MFKP pump performance curve, ADPKD cystic cells; format: cell-based, human
Text: as §1, §2
Port 1 is closed. (4B) Schematic of the setup, which allows measurement of trans-epithelial fluid flux from the basal to apical chamber. (4C) Schematic representation of a cystic kidney derived from ADPKD patients.

cysts = details: mouse models of ADPKD; AVP treatment; reference [15]; cited from earlier work
WTc cells = assay: MFKP pump performance curve, wild type cortex (WTc) primary kidney cells; format: cell-based, human
Text: as §1, §2, §3

ADPKD kidney = details: reference [16]; cited from earlier work
V2R = V2R (Homo sapiens, UniProt P30518); details: reference [18]; cited from earlier work
Chain of V2R (P30518 whole entry, species assumed): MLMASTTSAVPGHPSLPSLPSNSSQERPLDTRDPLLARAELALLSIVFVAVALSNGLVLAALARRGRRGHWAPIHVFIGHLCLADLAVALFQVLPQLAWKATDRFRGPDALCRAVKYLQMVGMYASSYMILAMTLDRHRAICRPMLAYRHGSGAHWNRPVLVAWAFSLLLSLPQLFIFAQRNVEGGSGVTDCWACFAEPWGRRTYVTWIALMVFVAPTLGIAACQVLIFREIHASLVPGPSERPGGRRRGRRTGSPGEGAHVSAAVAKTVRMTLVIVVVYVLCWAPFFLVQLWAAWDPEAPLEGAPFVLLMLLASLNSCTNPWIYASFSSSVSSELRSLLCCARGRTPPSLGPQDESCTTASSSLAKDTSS

[1] = mature ADPKD epithelium, 1 nM TVP on basolateral side for 1 hour, vs control

For NC(=O)CC[C@@H]1NC(=O)[C@H](Cc2ccccc2)NC(=O)[C@H](Cc2ccc(O)cc2)NC(=O)[C@@H](N)CSSC[C@@H](C(=O)N2CCC[C@H]2C(=O)N[C@@H](CCCN=C(N)N)C(=O)NCC(N)=O)NC(=O)[C@H](CC(N)=O)NC1=O [AVP, arginine vasopressin], the “pump performance curve (PPC)” value (MDCK-II epithelium; MDCK-II epithelium, chemical perturbation (addition of AVP)) was “changes substantially”, the “J0 and ΔP*” value (WTm cells; basolateral treatment of AVP) was “variable response” and the “stall pressure ΔP*” value (ADPKD cystic cells; ADPKD cells, basolateral treatment of AVP) was −300 Pa. For the same molecule, the basal-to-apical fluid pumping (ADPKD cystic cells; ADPKD epithelium, basolateral treatment of AVP) was “massive surge”, the cyst growth (cysts) was “grow bigger” and the “J0 and ΔP*” value (WTc cells; basolateral treatment of AVP) was “variable response”.

For C[C@@H](N)[C@H]1CC[C@H](C(=O)Nc2ccncc2)CC1 [Y-27367], the fluid flux (MDCK-II epithelium; MDCK-II epithelium in MFKP, addition of Y-27367) was “did not influence fluid flux significantly”.

For Cc1ccccc1C(=O)Nc1ccc(C(=O)N2CCCC(O)c3cc(Cl)ccc32)c(C)c1 (stereo not drawn) [Tolvaptan], the total kidney volume (ADPKD kidney) is given as “decreased”, the cAMP levels (V2R) is given as “decrease” and the “J0 (fluid flux at zero pressure gradient)” value (ADPKD cystic cells; [1]) is given as “decreased”. For the same molecule, the “stall pressure ΔP*” value (ADPKD cystic cells; [1]) was “decreased”.

For C[C@@H]1O[C@@H](O[C@H]2C[C@@H](O)[C@]3(CO)[C@H]4[C@H](O)C[C@]5(C)[C@@H](C6=CC(=O)OC6)CC[C@]5(O)[C@@H]4CC[C@]3(O)C2)[C@H](O)[C@H](O)[C@H]1O [Ouabain], the J0 (WTm cells; overnight incubation with 274 μM Ouabain (control 4.3)) was 1.0 μL/min/cm2, the “ΔP*” value (WTm cells; overnight incubation with 274 μM Ouabain (control 56 Pa)) was 42 Pa and the “equilibrium fluid flux (J0)” value (WTc cells; after Ouabain induced inhibition of NKA (control 4.3)) was 1.7 μL/min/cm^2. The “stall pressure ΔP*” value (WTc cells; after Ouabain induced inhibition of NKA (control 157 Pa)) was 34 Pa.
